The conditions of data set [1]: 298.15 K; 101.33 kPa; Liquid; Vibrating tube method.
Data set [2] can be described thus: excess molar enthalpy (molar enthalpy of mixing); xn = mol fraction of the nth substance listed. The note with it: 298.15 K, 101.3 kPa, Liquid, Flow calorimetry.

Numbers after ± are expanded uncertainties.

As usually defined, the mass density is mass per unit of volume. With `CCC(C)CC` [3-methylpentane], the mass density in data set [1] is recorded as 659.94 ± 0.4 kg/m3.

As for `CCC(C)CC` [3-methylpentane] + CC(C)OC(C)C, the excess molar enthalpy in data set [2] (x2 = 0.05) stood at 0.0101 ± 0.000263 kcal/mol; in data set [2] (x2 = 0.1) it was 0.0188 ± 0.000335 kcal/mol; in data set [2] (x2 = 0.1499), 0.0262 ± 0.000382 kcal/mol; in data set [2] (x2 = 0.2), 0.0325 ± 0.00043 kcal/mol; in data set [2] (x2 = 0.2503), 0.0372 ± 0.000478 kcal/mol; in data set [2] (x2 = 0.2998), 0.041 ± 0.000502 kcal/mol. For the same molecule, the excess molar enthalpy was determined as 0.0439 ± 0.000526 kcal/mol in data set [2] (x2 = 0.3501); 0.046 ± 0.00055 kcal/mol in data set [2] (x2 = 0.3997); 0.0472 ± 0.00055 kcal/mol in data set [2] (x2 = 0.45); 0.0472 ± 0.00055 kcal/mol in data set [2] (x2 = 0.5003); 0.0463 ± 0.00055 kcal/mol in data set [2] (x2 = 0.5502); 0.0448 ± 0.000526 kcal/mol in data set [2] (x2 = 0.5998). Moreover, the excess molar enthalpy was 0.0422 ± 0.000526 kcal/mol in data set [2] (x2 = 0.65); 0.0387 ± 0.000478 kcal/mol in data set [2] (x2 = 0.7002); 0.0343 ± 0.000454 kcal/mol in data set [2] (x2 = 0.7501); 0.029 ± 0.000406 kcal/mol in data set [2] (x2 = 0.8003); 0.0224 ± 0.000359 kcal/mol in data set [2] (x2 = 0.85); 0.0158 ± 0.000311 kcal/mol in data set [2] (x2 = 0.9). In addition, in data set [2] (x2 = 0.95), the excess molar enthalpy came out at 0.00855 ± 0.000263 kcal/mol.

Take `CCCCCCCCCC` [decane]: the mass density in data set [1] stood at 726.3 ± 0.41 kg/m3.

For `CC(C)OC(C)C` [diisopropyl ether], in data set [1], the mass density amounted to 718.7 ± 0.41 kg/m3.

In the case of `CCCCCCCC` [octane], the mass density in data set [1] is on record as 698.72 ± 0.4 kg/m3.

The values are drawn from the NIST ThermoML archive (doi:10.1021/je030161t).
